Drawing on US8269008B2, “Oxazolopyridine and isoxazolopyridine derivatives for use in the treatment of HIF-mediated conditions” (FibroGen, Inc., priority 2007, dated 2012), this text covers inhibition for 33 molecules.

This experiment addresses T1, HIF-PH2 (EGLN1) (Homo sapiens, UniProt Q9GZT9).
T1 construct: made in house; host or cells: insect Hi5 cells
As to the kind of experiment: HIF-PH assay (14CO2 capture, peptide-dependent turnover). The experiment is classed as biochemical. Particulars: for inhibition at 22.22 µM: Concentration 22.22 μM; for inhibition at 200 µM: Concentration 200.00 μM. An excerpt:
Ketoglutaric acid α-[1-^14C]-sodium salt, alpha-ketoglutaric acid sodium salt, and HPLC purified peptide may be obtained from commercial sources, e.g., Perkin-Elmer (Wellesley Mass.), Sigma-Aldrich, and SynPep Corp. (Dublin Calif.), respectively. Peptides for use in the assay may be fragments of HIFα as described above or as disclosed in International Publication WO 2005/118836, incorporated by reference herein. For example, a HLF peptide for use in the HIF-PH assay is [methoxycoumarin]-DLDLEALAPYIPADDDFQL-amide. HIF-PH, e.g., HIF-PH2 (EGLN1), can be expressed in, e.g., insect Hi5 cells, and partially purified, e.g., through a SP ion exchange chromatography column. Enzyme activity is determined by capturing ^14CO2 using an assay described by Kivirikko and Myllyla (1982, Methods Enzymol. 82:245-304). Assay reactions contain 50 mM HEPES (pH 7.4), 100 μM α-ketoglutaric acid sodium salt, 0.30 μCi/mL ketoglutaric acid α-[1-^14C]-sodium salt, 40 μM FeSO4, 1 mM ascorbate, 1541.8 units/mL Catalase, with or without 50 μM peptide substrate and various concentrations of compound of the invention. Reactions are initiated by addition of HIF-PH enzyme.
The peptide-dependent percent turnover is calculated by subtracting percent turnover in the absence of peptide from percent turnover in the presence of substrate peptide. Percent inhibition and IC50 are calculated using peptide-dependent percent turnover at given inhibitor concentrations. Calculation of IC50 values for each inhibitor is conducted using GraFit software (Erithacus Software Ltd., Surrey UK). […]

T1 sequence (Q9GZT9 whole entry, species assumed): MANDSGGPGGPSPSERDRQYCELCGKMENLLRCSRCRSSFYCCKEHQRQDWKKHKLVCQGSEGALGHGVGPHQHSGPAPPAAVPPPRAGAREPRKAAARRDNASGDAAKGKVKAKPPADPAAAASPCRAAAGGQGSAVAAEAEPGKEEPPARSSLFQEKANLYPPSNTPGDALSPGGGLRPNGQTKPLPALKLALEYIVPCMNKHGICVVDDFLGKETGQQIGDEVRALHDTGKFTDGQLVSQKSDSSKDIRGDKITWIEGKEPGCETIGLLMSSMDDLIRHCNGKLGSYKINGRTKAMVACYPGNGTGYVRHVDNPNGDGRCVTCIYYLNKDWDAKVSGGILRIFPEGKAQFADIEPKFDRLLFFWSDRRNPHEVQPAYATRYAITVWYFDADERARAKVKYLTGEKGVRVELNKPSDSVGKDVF

The inhibition is how much of the control response was suppressed. Lower therefore signals a weak effect. With `O=C(O)CNC(=O)c1ncc2onc(-c3ccc(C(F)(F)F)cc3)c2c1O` [Example 34, {[4-Hydroxy-3-(4-trifluoromethyl-phenyl)-isoxazolo[5,4-c]pyridine-5-carbonyl]-amino}-acetic acid], the inhibition at 22.22 µM was 97.8%.

Regarding `O=C(O)CNC(=O)c1ncc2onc(-c3ccccc3OC(F)(F)F)c2c1O` [Example 35, {[4-Hydroxy-3-(2-trifluoromethoxy-phenyl)-isoxazolo[5,4-c]pyridine-5-carbonyl]-amino}-acetic acid], testing at 22.22 µM gave an inhibition of 86.3%.

`O=C(O)CNC(=O)c1nc(-c2ccncc2)c2onc(-c3ccccc3)c2c1O` [Example 36, [(4-Hydroxy-3-phenyl-7-pyridin-4-yl-isoxazolo[5,4-c]pyridine-5-carbonyl)-amino]-acetic acid] gave an inhibition at 22.22 µM of 98.5%.

For `O=C(O)CNC(=O)c1nc(-c2ccccn2)c2onc(-c3ccccc3)c2c1O` [Example 37, [(4-Hydroxy-3-phenyl-7-pyridin-2-yl-isoxazolo[5,4-c]pyridine-5-carbonyl)-amino]-acetic acid], at 22.22 µM the inhibition was 99.6%.

`O=C(O)CNC(=O)c1nc(C(F)(F)F)c2onc(-c3ccccc3)c2c1O` [Example 38, [(4-Hydroxy-3-phenyl-7-trifluoromethyl-isoxazolo[5,4-c]pyridine-5-carbonyl)-amino]-acetic acid] displayed an inhibition at 22.22 µM of 97.8%.

In the case of `O=C(O)CNC(=O)c1ncc2onc(-c3ccc(OC(F)(F)F)cc3)c2c1O` [Example 39, {[4-Hydroxy-3-(4-trifluoromethoxy-phenyl)-isoxazolo[5,4-c]pyridine-5-carbonyl]-amino}-acetic acid], the inhibition at 22.22 µM amounted to 98.7%.

In the case of `CC(C)(C)c1ccc(-c2noc3cnc(C(=O)NCC(=O)O)c(O)c23)cc1` [Example 40, {[3-(4-tert-Butyl-phenyl)-4-hydroxy-isoxazolo[5,4-c]pyridine-5-carbonyl]-amino}-acetic acid], the inhibition at 22.22 µM is 98.8%.

`O=C(O)CNC(=O)c1nc(Br)c2onc(-c3ccccc3)c2c1O` [Example 41, [(7-Bromo-4-hydroxy-3-phenyl-isoxazolo[5,4-c]pyridine-5-carbonyl)-amino]-acetic acid] showed an inhibition at 22.22 µM of 99.4%.

The molecule `O=C(O)CNC(=O)c1ncc2c(-c3ccccc3)noc2c1O` [Example 42, [(7-Hydroxy-3-phenyl-isoxazolo[4,5-c]pyridine-6-carbonyl)-amino]-acetic acid] displayed an inhibition at 200 µM of 98.4%.

Turning to `C[C@H](NC(=O)c1ncc2c(-c3ccccc3)noc2c1O)C(=O)O` [Example 43, (S)-2-[(7-Hydroxy-3-phenyl-isoxazolo[4,5-c]pyridine-6-carbonyl)amino]-propionic acid], the inhibition at 200 µM stood at 98.7%.

In the case of `C[C@@H](NC(=O)c1ncc2c(-c3ccccc3)noc2c1O)C(=O)O` [Example 44, (R)-2-[(7-Hydroxy-3-phenyl-isoxazolo[4,5-c]pyridine-6-carbonyl)-amino]-propionic acid], at 200 µM the inhibition was 82.2%.

The molecule `O=C(O)CNC(=O)c1ncc2c(-c3ccc(F)cc3)noc2c1O` [Example 45, {[3-(4-Fluoro-phenyl)-7-hydroxy-isoxazolo[4,5-c]pyridine-6-carbonyl]-amino}-acetic acid] yielded an inhibition at 200 µM of 98.6%.

Molecule `COc1ccc(-c2noc3c(O)c(C(=O)NCC(=O)O)ncc23)cc1` [Example 46, {[7-Hydroxy-3-(4-methoxy-phenyl)-isoxazolo[4,5-c]pyridine-6-carbonyl]-amino}-acetic acid] displayed an inhibition at 200 µM of 99.4%.

Molecule `O=C(O)CNC(=O)c1ncc2c(-c3cccs3)noc2c1O` [Example 47, [(7-Hydroxy-3-thiophen-2-yl-isoxazolo[4,5-c]pyridine-6-carbonyl)-amino]-acetic acid] showed an inhibition at 200 µM of 99%.

Take `O=C(O)CNC(=O)c1ncc2c(-c3ccncc3)noc2c1O` [Example 48, [(7-Hydroxy-3-pyridin-4-yl-isoxazolo[4,5-c]pyridine-6-carbonyl)-amino]-acetic acid]: the inhibition at 200 µM amounted to 100%.

`O=C(O)CNC(=O)c1ncc2c(-c3ccc(Br)o3)noc2c1O` [Example 49, {[3-(5-Bromo-furan-2-yl)-7-hydroxy-isoxazolo[4,5-c]pyridine-6-carbonyl]-amino}-acetic acid] returned an inhibition at 200 µM of 96.3%.

Take `Cc1nc(C(=O)NCC(=O)O)c(O)c2onc(-c3ccccc3)c12` [Example 50, [(7-Hydroxy-4-methyl-3-phenyl-isoxazolo[4,5-c]pyridine-6-carbonyl)-amino]-acetic acid]: the inhibition at 200 µM worked out at 99.5%.

Take `N#Cc1nc(C(=O)NCC(=O)O)c(O)c2onc(-c3cccs3)c12` [Example 51, [(4-Cyano-7-hydroxy-3-thiophen-2-yl-isoxazolo[4,5-c]pyridine-6-carbonyl)-amino]-acetic acid]: the inhibition at 200 µM came to 98.8%.

In turn, `N#Cc1nc(C(=O)NCC(=O)O)c(O)c2onc(-c3ccc(F)cc3)c12` [Example 52, {[4-Cyano-3-(4-fluoro-phenyl)-7-hydroxy-isoxazolo[4,5-c]pyridine-6-carbonyl]-amino}-acetic acid] came in with an inhibition at 200 µM of 98.6%.

Consider `COc1ccc(-c2noc3c(O)c(C(=O)NCC(=O)O)nc(C#N)c23)cc1` [Example 53, {[4-Cyano-7-hydroxy-3-(4-methoxy-phenyl)-isoxazolo[4,5-c]pyridine-6-carbonyl]-amino}-acetic acid], for which testing at 200 µM gave an inhibition of 99.4%.

As to `N#Cc1nc(C(=O)NCC(=O)O)c(O)c2onc(-c3ccc(Br)o3)c12` [Example 54, {[3-(5-Bromo-furan-2-yl)-4-cyano-7-hydroxy-isoxazolo[4,5-c]pyridine-6-carbonyl]-amino}-acetic acid], testing at 200 µM gave an inhibition of 99.9%.

Consider `COc1ccc(-c2noc3c(O)c(C(=O)NCC(=O)O)nc(-c4ccccc4)c23)cc1` [Example 55, {[7-Hydroxy-3-(4-methoxy-phenyl)-4-phenyl-isoxazolo[4,5-c]pyridine-6-carbonyl]-amino}-acetic acid], for which the inhibition at 22.22 µM came out at 98.9%.

Molecule `COc1ccc(-c2noc3c(O)c(C(=O)NCC(=O)O)nc(C)c23)cc1` [Example 56, {[7-Hydroxy-3-(4-methoxy-phenyl)-4-methyl-isoxazolo[4,5-c]pyridine-6-carbonyl]-amino}-acetic acid] came in with an inhibition at 200 µM of 98.9%.

Regarding `O=C(O)CNC(=O)c1nc(C#Cc2ccccc2)c2c(-c3ccccc3)noc2c1O` [Example 57, [(7-Hydroxy-3-phenyl-4-phenylethynyl-isoxazolo[4,5-c]pyridine-6-carbonyl)-amino]-acetic acid], the inhibition at 22.22 µM stood at 98.6%.

Molecule `C#Cc1nc(C(=O)NCC(=O)O)c(O)c2onc(-c3ccccc3)c12` [Example 58, [(4-Ethynyl-7-hydroxy-3-phenyl-isoxazolo[4,5-c]pyridine-6-carbonyl)-amino]-acetic acid] gave an inhibition at 200 µM of 100%.

As to `O=C(O)CNC(=O)c1nc(C2CC2)c2c(-c3cccs3)noc2c1O` [Example 59, [(4-Cyclopropyl-7-hydroxy-3-thiophen-2-yl-isoxazolo[4,5-c]pyridine-6-carbonyl)-amino]-acetic acid], the inhibition at 200 µM was found to be 99.3%.

Molecule `COc1ccc(-c2noc3c(O)c(C(=O)NCC(=O)O)nc(Cn4cccn4)c23)cc1` [Example 60, {[7-Hydroxy-3-(4-methoxy-phenyl)-4-pyrazol-1-ylmethyl-isoxazolo[4,5-c]pyridine-6-carbonyl]-amino}-acetic acid] came in with an inhibition at 200 µM of 100%.

`CC(=O)c1nc(C(=O)NCC(=O)O)c(O)c2onc(-c3ccccc3)c12` [Example 61, [(4-Acetyl-7-hydroxy-3-phenyl-isoxazolo[4,5-c]pyridine-6-carbonyl)-amino]-acetic acid] displayed an inhibition at 200 µM of 100%.

`O=C(O)CNC(=O)c1nc(Cc2ccccc2)c2c(-c3ccccc3)noc2c1O` [Example 62, [(4-Benzyl-7-hydroxy-3-phenyl-isoxazolo[4,5-c]pyridine-6-carbonyl)-amino]-acetic acid] showed an inhibition at 200 µM of 100%.

`O=C(O)CNC(=O)c1nc(-c2cn(Cc3ccccc3)nn2)c2c(-c3ccccc3)noc2c1O` [Example 63, {[4-(1-Benzyl-1H-[1,2,3]-triazol-4-yl)-7-hydroxy-3-phenyl-isoxazolo[4,5-c]pyridine-6-carbonyl]-amino}-acetic acid] yielded an inhibition at 200 µM of 100%.

In the case of `O=C(O)CNC(=O)c1nc(C(F)(F)F)c2c(-c3ccccc3)noc2c1O` [Example 64, [(7-Hydroxy-3-phenyl-4-trifluoromethyl-isoxazolo[4,5-c]pyridine-6-carbonyl)-amino]-acetic acid], the inhibition at 200 µM worked out at 94.2%.

Take `O=C(O)CNC(=O)c1ncc2c(C3=CCCCC3)noc2c1O` [Example 65, [(3-Cyclohex-1-enyl-7-hydroxy-isoxazolo[4,5-c]pyridine-6-carbonyl)-amino]-acetic acid]: the inhibition at 200 µM is 100%.

With `CCc1noc2c(O)c(C(=O)NCC(=O)O)ncc12` [Example 66, [(3-Ethyl-7-hydroxy-isoxazolo[4,5-c]pyridine-6-carbonyl)-amino]-acetic acid], the inhibition at 200 µM came to 99.1%.
